ChEMBL document CHEMBL3627707, “Incorporation of metabolically stable ketones into a small molecule probe to increase potency and water solubility” (Bioorg Med Chem Lett, 2015)
Converted amounts (≈) assume the structure as drawn. The source made the active and inactive calls. The calls are words filed in the database; no cut-off is given here.

Columns and labels:
[1] = Selectivity ratio of IC50 for human BJeH cells to IC50 for human RAS-G12V overexpressing BJeLR cells; format: ADME, cell-based; settings: BJeH cells and RAS-G12V overexpressing BJeLR cells, read-out: Ratio IC50
[2] = Growth inhibition of human HT1080 cells after 48 hrs by alamar blue assay; format: functional; settings: HT-1080, 48 h
[3] = Growth inhibition of human RAS-G12V overexpressing BJeLR cells after 48 hrs by alamar blue assay; format: functional, cell-based
[4] = Metabolic stability in mouse liver microsomes assessed as compound remaining after 30 mins by LC-MS/MS analysis; format: ADME; settings: read-out: Stability
[5] = Solubility of compound in water; format: physicochemical; settings: buffer
[6] = Metabolic stability in mouse liver microsomes assessed as compound remaining after 45 mins by LC-MS/MS analysis; format: ADME; settings: read-out: Stability
[7] = target: T1, Cystine/glutamate transporter (Homo sapiens, UniProt Q9UPY5); test: Inhibition of Xct in human CCF-STTG1 cells assessed as glutamate release after 2 hrs by fluorometry; format: cell-based
T1 sequence (Q9UPY5 whole entry): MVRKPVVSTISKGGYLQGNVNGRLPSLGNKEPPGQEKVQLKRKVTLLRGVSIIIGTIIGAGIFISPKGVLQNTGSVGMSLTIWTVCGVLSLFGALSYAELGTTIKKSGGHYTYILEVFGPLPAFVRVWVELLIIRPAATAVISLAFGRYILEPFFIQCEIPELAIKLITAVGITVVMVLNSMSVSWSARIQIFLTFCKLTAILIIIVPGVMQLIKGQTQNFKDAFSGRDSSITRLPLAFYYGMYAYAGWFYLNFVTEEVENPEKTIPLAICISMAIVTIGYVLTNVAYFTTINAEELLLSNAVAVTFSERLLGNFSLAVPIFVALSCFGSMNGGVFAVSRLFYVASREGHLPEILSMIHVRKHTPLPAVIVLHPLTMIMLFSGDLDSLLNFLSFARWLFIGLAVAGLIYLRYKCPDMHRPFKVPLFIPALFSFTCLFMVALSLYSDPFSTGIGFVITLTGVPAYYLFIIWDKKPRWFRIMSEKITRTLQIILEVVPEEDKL

[8] = (§1) Half life in mouse liver microsomes by LC-MS/MS analysis; format: ADME; settings: liver microsomes
[9] = Metabolic stability in mouse liver microsomes assessed as compound remaining after 15 mins by LC-MS/MS analysis; format: ADME; settings: read-out: Stability
[10] = Metabolic stability in mouse liver microsomes assessed as compound remaining after 5 mins by LC-MS/MS analysis; format: ADME; settings: for remaining at 5 min: liver microsomes, read-out: Stability; for Stability: microsomes, 5 min
Plasma = test: Stability in mouse plasma at 500 ng/ml measured upto 120 mins; format: ADME, cell-free; settings: 2 h
DRD = test: Growth inhibition of human RAS-G12V overexpressing DRD cells after 48 hrs by alamar blue assay; format: functional, cell-based
Liver = test: as §1; format: ADME; settings: microsomes
[11] = Growth inhibition of human RAS-G12V overexpressing BJeLR cells; format: functional

Compound | selectivity ratio [1] | GI50 [2] [nM] | IC50 [3] [nM] | remaining at 0.5 h [4] [%] | solubility [5] [µM] | remaining at 0.75 h [6] [%] | IC50 [7] [nM] | half-life [8] [min] | remaining at […] [9] [%] | remaining at 5 min [10] [%] | Stability (Plasma) | inhibition (DRD) | Stability [10] [%] | t1/2 (Liver) [min] | GI50 [11] [nM]
CC(C)Oc1ccc(CN2CCNCC2)cc1-n1c(CN2CCN(C(=O)COc3ccc(Cl)cc3)CC2)nc2ccccc2c1=O | 3 | 1200 | 300 | 66.6 | 1400 (≈ 903 µg/mL) | 59.4 | 800 | 55.3 | 79.2 | – | – | – | – | – | –
CC(C)Oc1ccc(C(=O)CN2CCNCC2)cc1-n1c(CN2CCN(C(=O)COc3ccc(Cl)cc3)CC2)nc2ccccc2c1=O | – | 550 | – | 76.2 | – | 76.9 | – | – | 94.7 | 87.4 | Stable | – | – | – | –
C=CCN1CCN(CC(=O)c2ccc(OC(C)C)c(-n3c(CN4CCN(C(=O)COc5ccc(Cl)cc5)CC4)nc4ccccc4c3=O)c2)CC1 | 1.5 | – | 195 | 0 | – | 0 | – | – | 2.4 | 37.3 | – | inactive | – | – | –
CC(C)Oc1ccc(C(=O)CN2CCN(C)CC2)cc1-n1c(CN2CCN(C(=O)COc3ccc(Cl)cc3)CC2)nc2ccccc2c1=O | 1.9 | – | 474 | – | – | – | – | – | – | – | – | inactive | – | – | –
CC(C)Oc1ccc(C(=O)Cn2ccnc2)cc1-n1c(CN2CCN(C(=O)COc3ccc(Cl)cc3)CC2)nc2ccccc2c1=O | 42 | 314 | 3 | 75.4 | – | 64.1 | – | 78.5 | 82.9 | 89.3 | Stable | Active | – | – | –
CC(C)Oc1ccc(C(=O)CF)cc1-n1c(CN2CCN(C(=O)COc3ccc(Cl)cc3)CC2)nc2ccccc2c1=O | – | – | – | 0 | – | 0 | – | – | 0 | – | – | Active | 15.5 | 4.7 | –
COc1ccc(CN2CCN(CC(=O)c3ccc(OC(C)C)c(-n4c(CN5CCN(C(=O)COc6ccc(Cl)cc6)CC5)nc5ccccc5c4=O)c3)CC2)cc1 | 13 | – | 13 | 0.3 | – | 0.2 | – | – | 2.8 | 29.7 | – | Active | – | – | –
CC(C)Oc1ccc(C(=O)C(F)(F)F)cc1-n1c(CN2CCN(C(=O)COc3ccc(Cl)cc3)CC2)nc2ccccc2c1=O | 8 | – | 210 | – | – | – | – | – | – | – | – | – | – | – | –
CCOc1ccccc1-n1c(C(C)N2CCN(C(=O)COc3ccc(Cl)cc3)CC2)nc2ccccc2c1=O (stereo unspecified) [ERASTIN] | – | – | – | – | 90 (≈ 49.2 µg/mL) | – | – | < 5 | – | – | – | Active | – | – | –
CC(=O)c1ccc(OC(C)C)c(-n2c(CN3CCN(C(=O)COc4ccc(Cl)cc4)CC3)nc3ccccc3c2=O)c1 | – | 59 | – | 0 | – | 0 | – | – | 0 | – | – | Active | 0.5 | 3.8 | –
CC(C)Oc1ccc(C(=O)CN2CCOCC2)cc1-n1c(CN2CCN(C(=O)COc3ccc(Cl)cc3)CC2)nc2ccccc2c1=O | 5 | – | 427 | 30.6 | – | 21.2 | – | – | 53.2 | 83.8 | – | Active | – | – | –
CC(C)Oc1ccc(C=O)cc1-n1c(CN2CCN(C(=O)COc3ccc(Cl)cc3)CC2)nc2ccccc2c1=O | 15 | – | 8 | – | 80 (≈ 46 µg/mL) | – | – | – | – | – | – | – | – | – | 8
